From the supplement of paper PMC10307832

Key:
Experiment in all cases: relative viability (nuclei count vs DMSO), 5 days (fraction); higher = more cells survive
[1] = tested on: NCI-H727
In short: (§1)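 A single step with final 0.05% Triton X-100, 1% formaldehyde and 1 ug/ml Hoechst fixed the cells and stained nuclei 5 days after treatment. Lung cancer cell lines in 1536-well plates had been treated by pin tool the day after seeding with one drug alone or a fixed anchor-drug dose plus five library-drug doses (not always all listed) in √10 steps, and nuclei were counted on 4× images. Relative viability is the ratio of nuclei in treated wells to nuclei in vehicle wells, taken as the median of duplicate plates.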

[2] = tested on: EMC-BAC-2
In short: as §1

[3] = tested on: PC-3 [JPC-3]
In short: as §1

[4] = tested on: NCI-H3122
In short: as §1

[5] = tested on: HARA
In short: as §1

[6] = tested on: NCI-H2228
In short: as §1

[7] = tested on: NCI-H1944
In short: as §1

[8] = tested on: NCI-H1792
In short: as §1

[9] = tested on: LK-2
In short: as §1

[10] = tested on: NCI-H322M
In short: as §1

[11] = tested on: ABC-1
In short: as §1

[12] = tested on: SK-MES-1
In short: as §1

[13] = tested on: LXF-289
In short: as §1

[14] = tested on: NCI-H596
In short: as §1

[15] = tested on: NCI-H2170
In short: as §1

[16] = tested on: A-427
In short: as §1

[17] = tested on: NCI-H2009
In short: as §1

[18] = tested on: NCI-H1993
In short: as §1

[19] = tested on: HOP-62
In short: as §1

[20] = tested on: SW 1573
In short: as §1

## COc1cc2nccc(Oc3ccc(NC(=O)Nc4cc(C)on4)c(Cl)c3)c2cc1OC [Tivozanib] + C[C@@H](Oc1cc(-c2cnn(C3CCNCC3)c2)cnc1N)c1c(Cl)ccc(F)c1Cl [Crizotinib] (partner 1 µM)
[1]; first compound 0.005 µM
  relative viability: 0.72
[1]; first compound 0.01581 µM
  relative viability: 0.843
[1]; first compound 0.05 µM
  relative viability: 0.833
[1]; first compound 0.5 µM
  relative viability: 0.869
[2]; first compound 0.005 µM
  relative viability: 0.769
[2]; first compound 0.01581 µM
  relative viability: 0.807
[2]; first compound 0.05 µM
  relative viability: 0.74
[2]; first compound 0.1581 µM
  relative viability: 0.754
[2]; first compound 0.5 µM
  relative viability: 0.791
[3]; first compound 0.005 µM
  relative viability: 0.912
[3]; first compound 0.01581 µM
  relative viability: 0.997
[3]; first compound 0.05 µM
  relative viability: 0.991
[3]; first compound 0.1581 µM
  relative viability: 1.02
[3]; first compound 0.5 µM
  relative viability: 1.02
[4]; first compound 0.005 µM
  relative viability: 0.236
[4]; first compound 0.01581 µM
  relative viability: 0.266
[4]; first compound 0.05 µM
  relative viability: 0.266
[4]; first compound 0.1581 µM
  relative viability: 0.29
[4]; first compound 0.5 µM
  relative viability: 0.32
[5]; first compound 0.005 µM
  relative viability: 0.976
[5]; first compound 0.01581 µM
  relative viability: 1
[5]; first compound 0.05 µM
  relative viability: 1.21
[5]; first compound 0.1581 µM
  relative viability: 1.09
[5]; first compound 0.5 µM
  relative viability: 0.974
[6]; first compound 0.005 µM
  relative viability: 0.439
[6]; first compound 0.01581 µM
  relative viability: 0.421
[6]; first compound 0.05 µM
  relative viability: 0.491
[6]; first compound 0.1581 µM
  relative viability: 0.453
[6]; first compound 0.5 µM
  relative viability: 0.605
[7]; first compound 0.005 µM
  relative viability: 1.13
[7]; first compound 0.01581 µM
  relative viability: 1.05
[7]; first compound 0.05 µM
  relative viability: 1.1
[7]; first compound 0.1581 µM
  relative viability: 1.02
[7]; first compound 0.5 µM
  relative viability: 1.28
[8]; first compound 0.005 µM
  relative viability: 0.96
[8]; first compound 0.01581 µM
  relative viability: 1.01
[8]; first compound 0.05 µM
  relative viability: 1.07
[8]; first compound 0.1581 µM
  relative viability: 0.933
[8]; first compound 0.5 µM
  relative viability: 1.07
[9]; first compound 0.005 µM
  relative viability: 0.253
[9]; first compound 0.01581 µM
  relative viability: 0.264
[9]; first compound 0.05 µM
  relative viability: 0.221
[9]; first compound 0.1581 µM
  relative viability: 0.198
[9]; first compound 0.5 µM
  relative viability: 0.22
[10]; first compound 0.005 µM
  relative viability: 0.9
[10]; first compound 0.01581 µM
  relative viability: 0.907
[10]; first compound 0.05 µM
  relative viability: 1.03
[10]; first compound 0.1581 µM
  relative viability: 0.845
[10]; first compound 0.5 µM
  relative viability: 0.8
[11]; first compound 0.005 µM
  relative viability: 1.09
[11]; first compound 0.01581 µM
  relative viability: 1.12
[11]; first compound 0.05 µM
  relative viability: 1.09
[11]; first compound 0.1581 µM
  relative viability: 1.08
[11]; first compound 0.5 µM
  relative viability: 0.874
[12]; first compound 0.005 µM
  relative viability: 1.02
[12]; first compound 0.01581 µM
  relative viability: 1.03
[12]; first compound 0.05 µM
  relative viability: 1
[12]; first compound 0.1581 µM
  relative viability: 0.995
[12]; first compound 0.5 µM
  relative viability: 0.87
[13]; first compound 0.005 µM
  relative viability: 0.762
[13]; first compound 0.01581 µM
  relative viability: 0.742
[13]; first compound 0.05 µM
  relative viability: 0.82
[13]; first compound 0.1581 µM
  relative viability: 0.864
[13]; first compound 0.5 µM
  relative viability: 0.705
[14]; first compound 0.005 µM
  relative viability: 0.947
[14]; first compound 0.01581 µM
  relative viability: 0.903
[14]; first compound 0.05 µM
  relative viability: 0.961
[14]; first compound 0.1581 µM
  relative viability: 0.861
[14]; first compound 0.5 µM
  relative viability: 0.966
[15]; first compound 0.005 µM
  relative viability: 1.11
[15]; first compound 0.01581 µM
  relative viability: 1.21
[15]; first compound 0.05 µM
  relative viability: 1.24
[15]; first compound 0.5 µM
  relative viability: 1.17
[16]; first compound 0.005 µM
  relative viability: 0.82
[16]; first compound 0.01581 µM
  relative viability: 0.84
[16]; first compound 0.05 µM
  relative viability: 0.986
[16]; first compound 0.1581 µM
  relative viability: 0.818
[16]; first compound 0.5 µM
  relative viability: 0.827
[17]; first compound 0.005 µM
  relative viability: 1.08
[17]; first compound 0.01581 µM
  relative viability: 1.02
[17]; first compound 0.05 µM
  relative viability: 1.1
[17]; first compound 0.1581 µM
  relative viability: 1.03
[17]; first compound 0.5 µM
  relative viability: 0.933
[18]; first compound 0.005 µM
  relative viability: 0.764
[18]; first compound 0.01581 µM
  relative viability: 0.852
[18]; first compound 0.05 µM
  relative viability: 0.926
[18]; first compound 0.1581 µM
  relative viability: 0.707
[18]; first compound 0.5 µM
  relative viability: 0.852
[19]; first compound 0.005 µM
  relative viability: 0.557
[19]; first compound 0.01581 µM
  relative viability: 0.939
[19]; first compound 0.05 µM
  relative viability: 0.928
[19]; first compound 0.1581 µM
  relative viability: 0.853
[19]; first compound 0.5 µM
  relative viability: 0.919
[20]; first compound 0.005 µM
  relative viability: 0.901
[20]; first compound 0.01581 µM
  relative viability: 0.765
[20]; first compound 0.05 µM
  relative viability: 0.78
[20]; first compound 0.1581 µM
  relative viability: 0.749
[20]; first compound 0.5 µM
  relative viability: 0.829
